The values below come from ChEMBL document CHEMBL1777745, “Non-oxime pyrazole based inhibitors of B-Raf kinase” (Bioorg Med Chem Lett, 2011).

SMILES strings stand for the structures. pIC50: −log10 of the molar value.

The target in series [1] is T1, Serine/threonine-protein kinase B-raf (Homo sapiens, UniProt P15056). As to the kind of experiment: Inhibition of B-Raf.
The nature of series [2]: Apparent permeability from apical to basolateral side in human Caco2 cells. Type of series: ADME, cell-based. The settings on record: caco-2.
The subject of the next series is Caco-2. As to the kind of experiment: Efflux ratio of apparent permeability from […] in human Caco2 cells. Type of series: ADME, cell-based.
Series [3] addresses T1, Serine/threonine-protein kinase B-raf. As to the kind of experiment: Inhibition of B-Raf-mediated ERK phosphorylation in cell-based assay.
Series [4] in a line: AUC in CD-1 mouse at 100 mg/kg, po. Type of series: ADME, organism-based. Also on record: dose 100 mg/kg, route oral. To be noted: plasma.
A short description of series [5]: Volume of distribution at steady state in CD-1 mouse at 2.5 mg/kg, iv. Type of series: ADME, organism-based. Also on record: dose 2.5 mg/kg, route intravenous. To be noted: in vivo, read-out: Vdss.
A short description of series [6]: AUC in CD-1 mouse at 2.5 mg/kg, iv. Type of series: ADME, organism-based. Also on record: dose 2.5 mg/kg, route intravenous. The settings on record: plasma.
Series [7] in a line: AUC in CD-1 mouse at 50 mg/kg, po. The arrangement: dose 50 mg/kg, route oral. The settings on record: plasma. Type of series: ADME, organism-based.
Series [8] in a line: Clearance in CD-1 mouse at 2.5 mg/kg, iv. Type of series: ADME, organism-based. Also on record: dose 2.5 mg/kg, route intravenous. To be noted: in vivo.
A short description of series [9]: AUC in CD-1 mouse at 25 mg/kg, po. Type of series: ADME, organism-based. Also on record: dose 25 mg/kg, route oral. The settings on record: plasma.

T1 sequence (P15056 whole entry): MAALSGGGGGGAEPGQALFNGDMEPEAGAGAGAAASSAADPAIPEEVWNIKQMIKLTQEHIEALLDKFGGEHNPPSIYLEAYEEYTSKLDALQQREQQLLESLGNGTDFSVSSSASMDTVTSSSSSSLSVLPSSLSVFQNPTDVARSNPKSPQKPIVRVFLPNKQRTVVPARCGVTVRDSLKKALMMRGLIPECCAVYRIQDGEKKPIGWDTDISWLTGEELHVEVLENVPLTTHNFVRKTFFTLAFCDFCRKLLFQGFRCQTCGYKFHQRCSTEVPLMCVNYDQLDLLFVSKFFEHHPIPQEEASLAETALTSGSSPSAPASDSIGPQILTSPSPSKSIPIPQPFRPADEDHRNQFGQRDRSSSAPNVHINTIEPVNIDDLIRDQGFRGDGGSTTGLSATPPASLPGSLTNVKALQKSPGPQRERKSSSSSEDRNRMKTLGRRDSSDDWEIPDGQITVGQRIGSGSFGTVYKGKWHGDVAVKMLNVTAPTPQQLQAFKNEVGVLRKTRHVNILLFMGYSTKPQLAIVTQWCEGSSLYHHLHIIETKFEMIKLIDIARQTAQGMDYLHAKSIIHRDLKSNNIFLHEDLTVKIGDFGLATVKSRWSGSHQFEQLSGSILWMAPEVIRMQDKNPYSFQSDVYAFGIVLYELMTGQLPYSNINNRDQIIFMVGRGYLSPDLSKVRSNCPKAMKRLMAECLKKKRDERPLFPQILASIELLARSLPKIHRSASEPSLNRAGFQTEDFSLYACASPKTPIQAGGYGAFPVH

In turn, `CCc1c[nH]nc1-c1ccc(-c2cn(C)nc2-c2ccncc2)cc1` gave a pIC50 in series [1] of under 6.00.
As for `Cn1cc(-c2ccc3c(c2)CCc2c[nH]nc2-3)c(-c2ccncc2)n1`, the pIC50 in series [1] was 7.64.
The molecule `Cn1cc(-c2ccc3c(c2)CCc2n[nH]cc2-3)c(-c2ccncc2)n1` had a pIC50 in series [1] of under 6.00.
On to `Cn1cc(-c2ccc3c(c2)Cc2n[nH]nc2-3)c(-c2ccncc2)n1`, for which the pIC50 in [1] was 7.96.
On the same count and under the same terms, for `Cn1cc(-c2ccc(-c3c[nH]nn3)cc2)c(-c2ccncc2)n1` the value was 7.26; for `Cn1cc(-c2ccc(-c3cc[nH]c3)cc2)c(-c2ccncc2)n1`, 6.10.
Still for that read-out and setting: as for `Cn1cc(-c2ccc3c(c2)CNC3=O)c(-c2ccncc2)n1`, the figure is 7.03; as for `CNC(=O)c1ccc(-c2cn(C)nc2-c2ccncc2)cc1`, 6.19; as for `Cn1cc(-c2ccc(S(N)(=O)=O)cc2)c(-c2ccncc2)n1`, under 6.00.
The same measure, in the same setting: for `Cn1cc(-c2cccc3[nH]ncc23)c(-c2ccncc2)n1` the value was 6.33.
As to `Cn1cc(-c2ccc3[nH]ncc3c2)c(-c2ccncc2)n1`, in series [1], the pIC50 was under 6.00.
For `Cn1cc(-c2ccc3[nH]ccc3c2)c(-c2ccncc2)n1`, in series [1], the pIC50 is 6.06.
Take `Cn1cc(-c2ccc3cc[nH]c3c2)c(-c2ccncc2)n1`: the pIC50 in series [1] is 6.48.
Still for that read-out and setting: as for `Cn1cc(-c2ccc3c(O)cccc3c2)c(-c2ccncc2)n1`, the figure is 8.85.
The molecule `Cn1cc(-c2ccc3cc(O)ccc3c2)c(-c2ccncc2)n1` showed a pIC50 in [1] of 7.11.
In [1], `Cn1cc(N)c(-c2ccncc2)n1` gave a pIC50 of under 6.00.
Turning to `Cn1cc(O)c(-c2ccncc2)n1`, the pIC50 in series [1] is under 6.00.
In the case of `c1cc(-c2nn(C3CCNCC3)cc2-c2ccc3c(c2)Cc2c[nH]nc2-3)ccn1`, in series [2], the Papp A→B stood at 1.88 ×10⁻⁶ cm/s. The Ratio in the series on Caco-2 is given as 6.17. The molecule further showed a pIC50 in series [3] of 6.64.
As for `CN1CCC(n2cc(-c3ccc4c(c3)Cc3c[nH]nc3-4)c(-c3ccncc3)n2)CC1`, the pIC50 in series [1] is 8.10; in series [3], 6.05.
For `c1cc(-c2nn(C3CC4CCC(C3)N4)cc2-c2ccc3c(c2)Cc2c[nH]nc2-3)ccn1` (configuration not stated), in that order: 9.24 and 6.58.
For `c1cc(-c2nn(C3CCCNC3)cc2-c2ccc3c(c2)Cc2c[nH]nc2-3)ccn1` (configuration not stated) the same measures were 8.43 and 5.78.
For `c1cc(-c2nn(C3CCCNCC3)cc2-c2ccc3c(c2)Cc2c[nH]nc2-3)ccn1` (configuration not stated), in that order: 8.49 and 5.81.
Take `N[C@H]1CC[C@H](n2cc(-c3ccc4c(c3)Cc3c[nH]nc3-4)c(-c3ccncc3)n2)CC1`: the pIC50 in [1] is 9.18; in series [3] it was 6.40.
For `N[C@H]1CC[C@@H](n2cc(-c3ccc4c(c3)Cc3c[nH]nc3-4)c(-c3ccncc3)n2)CC1`, the pIC50 was 7.64 in series [1] and 5.82 in [3].
For `CNCCn1cc(-c2ccc3c(c2)Cc2c[nH]nc2-3)c(-c2ccncc2)n1`, in that order: 7.14 and 5.09.
`O[C@@H]1CCC[C@H](n2cc(-c3ccc4c(c3)Cc3c[nH]nc3-4)c(-c3ccncc3)n2)C1`: the pIC50 is 8.70 in [1] and 6.22 in [3].
For `c1ccc(-n2cc(-c3ccc4c(c3)Cc3c[nH]nc3-4)c(-c3ccncc3)n2)cc1` the same measures were 8.34 and 5.36.
Turning to `O[C@@H]1CNCC[C@H]1n1cc(-c2ccc3c(c2)Cc2c[nH]nc2-3)c(-c2ccncc2)n1`, the pIC50 in series [1] was 8.31; in series [3], 5.31.
Regarding `c1cc(-c2nn(C3CC4COCC(C3)N4)cc2-c2ccc3c(c2)Cc2c[nH]nc2-3)ccn1` (configuration not stated), the pIC50 in series [1] was 8.30; in [3] it was 6.21.
For `F[C@H]1CNCC[C@H]1n1cc(-c2ccc3c(c2)Cc2c[nH]nc2-3)c(-c2ccncc2)n1`, in that order: 8.42 and 6.39.
With `F[C@H]1CCNC[C@H]1n1cc(-c2ccc3c(c2)Cc2c[nH]nc2-3)c(-c2ccncc2)n1`, the figures for the pIC50 in series [1] and in series [3] were 8.49 and 5.67, respectively.
For `F[C@H]1CNCC[C@@H]1n1cc(-c2ccc3c(c2)Cc2c[nH]nc2-3)c(-c2ccncc2)n1`, in that order: 8.90 and 6.17.
Turning to `Cc1c[nH]nc1-c1ccc(-c2cn(C)nc2-c2ccncc2)cc1`, in series [1], the pIC50 is 8.15.
The same measure, in the same setting: for `Cn1cc(-c2ccc3cn[nH]c3c2)c(-c2ccncc2)n1` the value was 6.86.
Consider `F[C@@H]1CNCC[C@H]1n1cc(-c2ccc3c(c2)Cc2c[nH]nc2-3)c(-c2ccncc2)n1` (stereo in doubt; 38), for which the AUC in series [4] is 38800 ng·h/mL; in series [6], 406 ng·h/mL; in series [7], 13400 ng·h/mL; in series [9] it was 5160 ng·h/mL. In addition, the Vd in [5] came out at 8.74 L/kg. Also, the Papp A→B in [2] was 11.4 ×10⁻⁶ cm/s. For the same molecule, the pIC50 in series [1] was 8.85; in series [3], 6.15. The molecule further yielded a clearance in series [8] of 91.1 mL/min/kg. For the same molecule, in the series on Caco-2, the Ratio is 1.55.
For the molecule `F[C@@H]1CNCC[C@H]1n1cc(-c2ccc3c(c2)Cc2c[nH]nc2-3)c(-c2ccncc2)n1` (stereo in doubt; 41), the pIC50 is 8.80 in [1] and 6.27 in series [3].
